For data set [1] the following is noted: humans, cited from earlier work; for Concentration in the kidney of amatoxin-intoxicated patients / Concentration in the liver of amatoxin-intoxicated patients: 4 cases; for Plasma concentrations in amatoxin-intoxicated patients: detected in 11 of 43 patients exposed within 36 h; for Total amount excreted in urine in amatoxin-intoxicated patients: measured in 24 patients out of 35 cases. On the procedure: In humans, the plasma and urinary concentrations of α- and β-amanitin were detected in cases of suspected amatoxin poisoning. Among 43 amatoxin-intoxicated patients, amanitin was detected in 11 patients who were exposed to amatoxin within 36 h. The plasma concentrations were 8–190 ng/mL for α-amanitin and 15.9–162 ng/mL for β-amanitin [26]. The total amount of α- and β-amanitin excreted in urine were measured in 24 patients out of 35 cases, and a highly variable amount of α- and β-amanitin was recovered from the urine: 0.03–3.29 mg for α-amanitin and 0.05–5.21 mg for β-amani ... || The intestinal tract, liver, and kidney are vulnerable to amanitin toxicity and also express drug-metabolizing enzymes and transporters that regulate the absorption, distribution, metabolism, and excretion of endogenous substrates and xenobiotics. […] Inhibition of CYP1A2, CYP2C8, CYP2C9, CYP2C19, and CYP3A4 at 100 μM in HLMs was almos ...

Data set [2] addresses MATE2-K (Homo sapiens, UniProt Q86VL8). The data set is described as follows: Uptake of amanitins into HEK293-MATE2-K cells. In kind it is in vitro ADME. Also on record: expressed in transfected cells; host or cells: HEK293. To be noted: 50 μM amanitin, 5 min, 37 °C, HBSS, 20 min preincubation, with and without cimetidine 100 μM, LC-HRMS, n = 3. On the procedure:
(§1) HEK293 cells overexpressing OCT2, MATE2-K, OAT1, OAT3, OATP1B1, and OATP1B3 transporters and HEK293-control cells were maintained in a humidified atmosphere of 5% CO2 at 37 °C in DMEM supplemented with 10% FBS and 5 mM non-essential amino acids. In the case of HEK293-OATP1B1, -OATP1B3, and MATE2-K cells, 2 mM sodium butyrate was added to the culture medium to enhance transport activity. Cells were seeded at 2 × 10^5 cells/well in poly-D-lysine-coated 24-well plates. After 24 h, the growth medium was discarded, and attached cells were washed with HBSS and preincubated for 20 min in HBSS at 37 °C. Stock solutions of α- and β-amanitin and representative inhibitors of transporters were diluted in HBSS to make the final concentration: cimetidine 1 mM (for OCT2), cimetidine 100 μM (for MATE2-K), probenecid 100 μM (for OAT1 and OAT3), and rifampin 100 μM (for OATP1B1 and OATP1B3). Uptake of 50 μM α- and β-amanitin was measured in the absence and presence of representative inhibitors for 5 min at 37 °C. Plates were placed immediately on ice, and cells were then washed twice with 1 mL of ice-cold HBSS. Residual HBSS was removed thoroughly from the plates. Subsequently, 150 μL of 80% methanol containing IS was added to each sample well, and the cell plates were shaken gently for 20 min at 4 °C. The remaining steps were the same as described for plasma sample preparation.

For data set [3] the following is noted: oral administration of dried powder of Amanita exitialis 60 mg/kg; cited from earlier work. The protocol: In addition, bile drainage caused more than a 70% reduction in plasma concentration of α- and β-amanitin and reduced hepatic toxicity following the oral administration of dried powder of Amanita exitialis (60 mg/kg). […] However, the toxicokinetics and tissue distribution of β-amanitin (Figure 1) upon ex ...

Data set [4] has as its target T1, OAT1 (Homo sapiens, UniProt Q4U2R8).
T1 construct: expressed in transfected cells; host or cells: HEK293
T1 sequence (Q4U2R8 1-563): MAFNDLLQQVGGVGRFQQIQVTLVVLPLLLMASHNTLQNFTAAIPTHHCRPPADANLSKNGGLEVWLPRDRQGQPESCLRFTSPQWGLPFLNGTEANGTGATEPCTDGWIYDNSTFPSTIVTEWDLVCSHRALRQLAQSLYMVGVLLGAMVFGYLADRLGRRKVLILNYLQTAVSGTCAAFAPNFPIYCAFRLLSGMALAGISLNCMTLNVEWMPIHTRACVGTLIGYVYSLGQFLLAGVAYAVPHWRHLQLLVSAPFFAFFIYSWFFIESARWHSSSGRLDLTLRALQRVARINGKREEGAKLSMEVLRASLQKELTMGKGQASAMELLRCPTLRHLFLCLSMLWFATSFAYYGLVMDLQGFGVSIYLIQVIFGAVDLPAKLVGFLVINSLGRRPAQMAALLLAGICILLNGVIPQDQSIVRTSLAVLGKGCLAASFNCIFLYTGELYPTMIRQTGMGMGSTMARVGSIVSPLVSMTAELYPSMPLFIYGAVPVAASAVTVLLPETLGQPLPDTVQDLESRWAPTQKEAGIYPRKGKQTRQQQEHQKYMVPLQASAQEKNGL
The experiment in a line: Uptake of amanitins into HEK293-OAT1 cells. The format is in vitro ADME. Conditions: 50 μM amanitin, 5 min, 37 °C, HBSS, 20 min preincubation, with and without probenecid, LC-HRMS, n = 3. On the procedure:
as §1

In data set [5] the target is T2, OATP1B3 (Homo sapiens, UniProt Q9NPD5).
T2 construct: expressed in transfected cells; host or cells: HEK293
The data set is described as follows: Uptake of amanitins into HEK293-OATP1B3 cells. Conditions: 50 μM amanitin, 5 min, 37 °C, HBSS, 20 min preincubation, with and without rifampin 100 μM, LC-HRMS, n = 3. The format is in vitro ADME. On the procedure: as §1

The target of data set [6] is T3, OATP1B1 (Homo sapiens, UniProt Q9Y6L6).
T3 construct: expressed in transfected cells; host or cells: HEK293
The data set is described as follows: Uptake of amanitins into HEK293-OATP1B1 cells. The format is in vitro ADME. Conditions: 50 μM amanitin, 5 min, 37 °C, HBSS, 20 min preincubation, with and without rifampin 100 μM, LC-HRMS, n = 3. On the procedure:
as §1

Data set [7] has as its target T4, OAT3 (Homo sapiens, UniProt Q8TCC7).
T4 sequence (Q8TCC7 1-542): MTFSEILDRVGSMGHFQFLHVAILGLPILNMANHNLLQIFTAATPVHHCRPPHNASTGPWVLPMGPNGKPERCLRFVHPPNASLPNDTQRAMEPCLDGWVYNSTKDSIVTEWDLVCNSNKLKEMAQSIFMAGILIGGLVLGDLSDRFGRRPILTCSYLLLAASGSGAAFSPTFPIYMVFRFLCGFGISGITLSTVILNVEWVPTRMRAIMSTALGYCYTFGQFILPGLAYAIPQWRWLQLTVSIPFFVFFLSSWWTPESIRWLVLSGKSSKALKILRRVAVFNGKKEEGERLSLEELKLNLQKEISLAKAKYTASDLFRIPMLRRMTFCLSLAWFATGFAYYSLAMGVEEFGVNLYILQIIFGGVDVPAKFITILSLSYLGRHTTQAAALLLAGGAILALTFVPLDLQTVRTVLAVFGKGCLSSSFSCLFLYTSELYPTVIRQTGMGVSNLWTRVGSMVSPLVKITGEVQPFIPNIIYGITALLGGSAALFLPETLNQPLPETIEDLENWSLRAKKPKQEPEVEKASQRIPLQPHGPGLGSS
The data set is described as follows: Uptake of amanitins into HEK293-OAT3 cells. The format is in vitro ADME. Also on record: expressed in transfected cells; host or cells: HEK293. Conditions: 50 μM amanitin, 5 min, 37 °C, HBSS, 20 min preincubation, with and without probenecid, LC-HRMS, n = 3. The protocol:
as §1

The source of these data is paper PMC9030691, “Toxicokinetics of β-Amanitin in Mice and In Vitro Drug–Drug Interaction Potential” (Pharmaceutics, 2022).

Entries after “also recorded” stand apart in the source; their conditions may differ.

T3 sequence (Q9Y6L6 whole entry): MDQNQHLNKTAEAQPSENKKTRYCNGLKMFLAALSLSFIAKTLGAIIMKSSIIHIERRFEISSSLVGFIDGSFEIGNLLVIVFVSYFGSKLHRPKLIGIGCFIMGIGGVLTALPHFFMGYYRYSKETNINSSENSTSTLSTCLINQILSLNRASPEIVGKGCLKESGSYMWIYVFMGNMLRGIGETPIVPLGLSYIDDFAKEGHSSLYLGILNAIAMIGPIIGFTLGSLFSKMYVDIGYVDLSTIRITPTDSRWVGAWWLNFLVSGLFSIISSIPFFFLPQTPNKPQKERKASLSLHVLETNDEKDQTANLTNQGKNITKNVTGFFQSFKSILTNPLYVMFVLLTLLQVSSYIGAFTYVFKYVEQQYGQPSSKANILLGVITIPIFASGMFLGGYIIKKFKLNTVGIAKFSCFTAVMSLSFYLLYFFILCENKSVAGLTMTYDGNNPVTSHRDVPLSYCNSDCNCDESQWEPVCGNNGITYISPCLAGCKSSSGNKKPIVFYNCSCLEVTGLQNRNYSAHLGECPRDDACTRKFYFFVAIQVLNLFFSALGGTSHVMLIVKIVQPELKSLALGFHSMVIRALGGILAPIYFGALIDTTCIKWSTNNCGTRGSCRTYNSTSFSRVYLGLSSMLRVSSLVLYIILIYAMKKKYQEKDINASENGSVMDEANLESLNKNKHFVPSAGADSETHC
T2 sequence (Q9NPD5 whole entry): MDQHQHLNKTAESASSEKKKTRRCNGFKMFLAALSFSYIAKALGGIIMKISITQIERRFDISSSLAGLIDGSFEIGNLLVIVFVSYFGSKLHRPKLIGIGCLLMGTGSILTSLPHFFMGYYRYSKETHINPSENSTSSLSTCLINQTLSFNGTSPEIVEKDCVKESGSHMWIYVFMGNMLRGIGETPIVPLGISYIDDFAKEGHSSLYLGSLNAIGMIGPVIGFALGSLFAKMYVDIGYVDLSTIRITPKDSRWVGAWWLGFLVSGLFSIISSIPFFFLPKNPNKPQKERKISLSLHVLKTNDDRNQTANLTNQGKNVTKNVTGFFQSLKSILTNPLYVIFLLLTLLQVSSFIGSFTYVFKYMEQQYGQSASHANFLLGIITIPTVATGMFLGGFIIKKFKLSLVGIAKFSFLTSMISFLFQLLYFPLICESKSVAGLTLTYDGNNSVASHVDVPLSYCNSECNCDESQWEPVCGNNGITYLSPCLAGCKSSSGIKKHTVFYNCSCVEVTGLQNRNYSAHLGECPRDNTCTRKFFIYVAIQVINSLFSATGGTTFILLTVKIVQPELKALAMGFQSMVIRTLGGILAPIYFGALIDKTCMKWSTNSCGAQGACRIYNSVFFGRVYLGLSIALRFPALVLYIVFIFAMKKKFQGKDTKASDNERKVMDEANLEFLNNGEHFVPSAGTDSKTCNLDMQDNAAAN
MATE2-K, sequence (Q86VL8 1-566 isoform Q86VL8-3): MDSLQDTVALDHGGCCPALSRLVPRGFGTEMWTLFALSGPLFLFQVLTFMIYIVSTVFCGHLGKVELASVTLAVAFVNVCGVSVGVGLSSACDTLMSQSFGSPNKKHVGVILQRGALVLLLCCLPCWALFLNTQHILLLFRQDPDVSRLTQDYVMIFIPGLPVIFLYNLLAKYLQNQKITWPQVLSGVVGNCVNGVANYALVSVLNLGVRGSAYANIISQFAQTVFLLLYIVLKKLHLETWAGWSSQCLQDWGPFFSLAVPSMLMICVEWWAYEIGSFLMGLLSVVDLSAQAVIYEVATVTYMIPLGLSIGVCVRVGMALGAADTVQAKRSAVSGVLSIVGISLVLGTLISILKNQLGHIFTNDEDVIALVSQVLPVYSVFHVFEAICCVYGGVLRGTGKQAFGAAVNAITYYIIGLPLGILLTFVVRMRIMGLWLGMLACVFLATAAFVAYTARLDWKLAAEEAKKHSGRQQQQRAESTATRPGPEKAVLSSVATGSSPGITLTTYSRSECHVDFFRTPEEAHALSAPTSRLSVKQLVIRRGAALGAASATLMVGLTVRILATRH

In the case of α-amanitin [reference compound], in data set [1], the “Concentration in the kidney of amatoxin-intoxicated patients” value is recorded as 122–1719 ng/g kidney, the “Concentration in the liver of amatoxin-intoxicated patients” value is on record as 10–19 ng/g liver, the “Plasma concentrations in amatoxin-intoxicated patients” value is 8 to 190 ng/mL and the “Total amount excreted in urine in amatoxin-intoxicated patients” value is 0.03 to 3.29 mg. Further, the “Uptake into HEK293-MATE2-K cells compared with HEK293 control cells (transport substrate)” value in data set [2] is recorded as “not involved in the active transport”. In data set [3], the “Reduction in plasma concentration caused by bile drainage” value is greater than 70%. Also, in data set [4], the “Uptake into HEK293-OAT1 cells compared with HEK293 control cells (transport substrate)” value is “not involved in the active transport”. Moreover, in data set [5], the “Uptake into HEK293-OATP1B3 cells compared with HEK293 control cells (transport substrate)” value was “significantly increased”. Moreover, in data set [6], the “Uptake into HEK293-OATP1B1 cells compared with HEK293 control cells (transport substrate)” value is on record as “significantly increased”. The “Uptake into HEK293-OAT3 cells compared with HEK293 control cells (transport substrate)” value in data set [7] was “but not α-amanitin, showed significantly greater uptake”.

In the case of `CC[C@H](C)[C@@H]1NC(=O)CNC(=O)[C@@H]2Cc3c([nH]c4cc(O)ccc34)[S@+]([O-])C[C@H](NC(=O)CNC1=O)C(=O)N[C@@H](CC(=O)O)C(=O)N1C[C@H](O)C[C@H]1C(=O)N[C@@H]([C@@H](C)[C@@H](O)CO)C(=O)N2` [β-amanitin], in data set [1], the “Concentration in the kidney of amatoxin-intoxicated patients” value was 1017–1391 ng/g kidney, the “Concentration in the liver of amatoxin-intoxicated patients” value is 170.8–3298 ng/g liver, the “Plasma concentrations in amatoxin-intoxicated patients” value was 15.9 to 162 ng/mL and the “Total amount excreted in urine in amatoxin-intoxicated patients” value was 0.05 to 5.21 mg. Further, the “Uptake into HEK293-MATE2-K cells compared with HEK293 control cells (transport substrate)” value in data set [2] is given as “not involved in the active transport”. The “Reduction in plasma concentration caused by bile drainage” value in data set [3] is reported as greater than 70%. In addition, in data set [4], the “Uptake into HEK293-OAT1 cells compared with HEK293 control cells (transport substrate)” value is given as “not involved in the active transport”. Further, the “Uptake into HEK293-OATP1B3 cells compared with HEK293 control cells (transport substrate)” value in data set [5] is recorded as “significantly increased; also recorded: substrate”. Further, in data set [6], the “Uptake into HEK293-OATP1B1 cells compared with HEK293 control cells (transport substrate)” value was “significantly increased; also recorded: substrate”. Besides, in data set [7], the “Uptake into HEK293-OAT3 cells compared with HEK293 control cells (transport substrate)” value was “significantly greater uptake; also recorded: substrate”.
